# Laboratory results as given in ChEMBL document CHEMBL1201862, “PubChem BioAssay data set” (2004).
#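 A five-concentration, 48-hour dose response in 96-well plates underlies each endpoint, interpolated linearly between surrounding concentrations. Here, GI50 denotes the concentration required for 50% inhibition of growth.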 Activity calls are given as the source filed them. No stated cut-off is given here; in the data, active = GI50 up to about 1.1 µM and inactive = higher.
# Key:
# Assay in all cases: DTP human tumour cell line panel, 48 h
# [1] = test system: SN12C
# [2] = test system: SF-539
# [3] = test system: CCRF-CEM
# [4] = test system: SR
# [5] = test system: RXF 393
# [6] = test system: KM-20L2
# [7] = test system: NCI-H23
# [8] = test system: DLD-1
# [9] = test system: U-251
# [10] = test system: MOLT-4
# [11] = test system: HCT-116
# [12] = test system: HOP-92
# [13] = test system: A549
# [14] = test system: M14
# [15] = test system: SF-268
# [16] = test system: OVCAR-8
# [17] = test system: COLO 205
# [18] = test system: SW-620
# [19] = test system: LXFL 529
# [20] = test system: A498
# [21] = test system: HCC 2998
# [22] = test system: HCT-15
# [23] = test system: SNB-19
# [24] = test system: HOP-62
# [25] = test system: SK-MEL-5
# [26] = test system: SNB-75
# [27] = test system: SF-295
# [28] = test system: OVCAR-5
# [29] = test system: DMS-114
# [30] = test system: HOP-18
# [31] = test system: NCI-H460
# [32] = test system: IGROV-1
# [33] = test system: UO-31
# [34] = test system: SK-MEL-28
# [35] = test system: UACC-257
# [36] = test system: RPMI-8226
# [37] = test system: NCI-H522
# [38] = test system: HL-60
# [39] = test system: ACHN
# [40] = test system: LOX IMVI
# [41] = test system: OVCAR-3
# [42] = test system: DMS-273
# [43] = test system: TK-10
# [44] = test system: XF498
# [45] = test system: UACC-62
# [46] = test system: KM12
# [47] = test system: SK-OV-3
# [48] = test system: EKVX
# [49] = test system: Malme-3M
# [50] = test system: HT-29
# [51] = test system: K562
# [52] = test system: SK-MEL-2
# [53] = test system: 786-0
# [54] = test system: M19-MEL
# [55] = test system: OVCAR-4
# [56] = test system: NCI-H226
# [57] = test system: CAKI-1
# [58] = test system: SNB-78
# [59] = test system: NCI/ADR-RES
# [60] = test system: MCF7
smiles,measurement,setting,value
O=S(=O)(O)c1cc(O)c2c(O)c(/N=N/c3ccc(/C=C/c4ccc(/N=N/c5c(S(=O)(=O)O)cc6cc(S(=O)(=O)O)cc(O)c6c5O)cc4S(=O)(=O)O)c(S(=O)(=O)O)c3)c(S(=O)(=O)O)cc2c1,GI50,[1],> 100 µM (inactive)
same,GI50,[2],> 100 µM (inactive)
same,GI50,[3],> 100 µM (inactive)
same,GI50,[4],> 100 µM (inactive)
same,GI50,[5],> 100 µM (inactive)
same,GI50,[6],> 100 µM (inactive)
same,GI50,[7],> 100 µM (inactive)
same,GI50,[8],> 100 µM (inactive)
same,GI50,[9],> 100 µM (inactive)
same,GI50,[10],> 100 µM (inactive)
same,GI50,[11],> 100 µM (inactive)
same,GI50,[12],95.7 µM (inactive)
same,GI50,[13],> 100 µM (inactive)
same,GI50,[14],> 100 µM (inactive)
same,GI50,[15],> 100 µM (inactive)
same,GI50,[16],> 100 µM (inactive)
same,GI50,[17],> 100 µM (inactive)
same,GI50,[18],> 100 µM (inactive)
same,GI50,[19],> 100 µM (inactive)
same,GI50,[20],> 100 µM (inactive)
same,GI50,[21],> 100 µM (inactive)
same,GI50,[22],> 100 µM
same,GI50,[23],> 100 µM (inactive)
same,GI50,[24],> 100 µM (inactive)
same,GI50,[25],> 100 µM (inactive)
same,GI50,[26],> 100 µM (inactive)
same,GI50,[27],> 100 µM (inactive)
same,GI50,[28],> 100 µM (inactive)
same,GI50,[29],56.6 µM (inactive)
same,GI50,[30],> 100 µM (inactive)
same,GI50,[31],> 100 µM (inactive)
same,GI50,[32],> 100 µM (inactive)
same,GI50,[33],> 100 µM (inactive)
same,GI50,[34],> 100 µM (inactive)
same,GI50,[35],> 100 µM (inactive)
same,GI50,[36],> 100 µM (inactive)
same,GI50,[37],> 100 µM (inactive)
same,GI50,[38],> 100 µM (inactive)
same,GI50,[39],> 100 µM (inactive)
same,GI50,[40],> 100 µM (inactive)
same,GI50,[41],> 100 µM (inactive)
same,GI50,[42],> 100 µM (inactive)
same,GI50,[43],> 100 µM (inactive)
same,GI50,[44],> 100 µM (inactive)
same,GI50,[45],> 100 µM (inactive)
same,GI50,[46],32.5 µM (inactive)
same,GI50,[47],> 100 µM (inactive)
same,GI50,[48],> 100 µM (inactive)
same,GI50,[49],> 100 µM (inactive)
same,GI50,[50],> 100 µM (inactive)
same,GI50,[51],> 100 µM (inactive)
same,GI50,[52],> 100 µM (inactive)
same,GI50,[53],> 100 µM (inactive)
same,GI50,[54],> 100 µM (inactive)
same,GI50,[55],> 100 µM (inactive)
same,GI50,[56],> 100 µM (inactive)
same,GI50,[57],> 100 µM (inactive)
CCOC(=O)C1=C(C(C)=O)CSC(c2ccccc2)=N1,GI50,[1],> 100 µM (inactive)
same,GI50,[2],> 100 µM (inactive)
same,GI50,[3],> 100 µM (inactive)
same,GI50,[5],> 100 µM (inactive)
same,GI50,[6],> 100 µM (inactive)
same,GI50,[7],98.4 µM (inactive)
same,GI50,[8],> 100 µM (inactive)
same,GI50,[9],> 100 µM (inactive)
same,GI50,[10],> 100 µM (inactive)
same,GI50,[11],> 100 µM (inactive)
same,GI50,[58],> 63.2 µM (inactive)
same,GI50,[12],> 100 µM (inactive)
same,GI50,[13],> 100 µM (inactive)
same,GI50,[15],> 100 µM (inactive)
same,GI50,[16],> 100 µM (inactive)
same,GI50,[17],> 100 µM (inactive)
same,GI50,[18],> 100 µM (inactive)
same,GI50,[20],> 100 µM (inactive)
same,GI50,[21],> 100 µM (inactive)
same,GI50,[22],> 100 µM
same,GI50,[23],> 100 µM (inactive)
same,GI50,[25],> 100 µM (inactive)
same,GI50,[26],> 100 µM (inactive)
same,GI50,[27],> 100 µM (inactive)
same,GI50,[28],> 100 µM (inactive)
same,GI50,[29],> 100 µM (inactive)
same,GI50,[30],> 100 µM (inactive)
same,GI50,[59],> 100 µM (inactive)
same,GI50,[31],> 100 µM (inactive)
same,GI50,[32],> 100 µM (inactive)
same,GI50,[33],97.9 µM (inactive)
same,GI50,[34],> 100 µM (inactive)
same,GI50,[35],> 100 µM (inactive)
same,GI50,[36],> 100 µM (inactive)
same,GI50,[37],> 100 µM (inactive)
same,GI50,[38],> 100 µM (inactive)
same,GI50,[40],> 100 µM (inactive)
same,GI50,[41],> 100 µM (inactive)
same,GI50,[42],> 100 µM (inactive)
same,GI50,[44],> 100 µM (inactive)
same,GI50,[45],> 100 µM (inactive)
same,GI50,[46],> 100 µM (inactive)
same,GI50,[47],> 100 µM (inactive)
same,GI50,[48],> 100 µM (inactive)
same,GI50,[49],> 100 µM (inactive)
same,GI50,[50],> 100 µM (inactive)
same,GI50,[51],> 100 µM (inactive)
same,GI50,[60],40.7 µM (inactive)
same,GI50,[52],> 100 µM (inactive)
same,GI50,[54],> 100 µM (inactive)
same,GI50,[55],> 100 µM (inactive)
same,GI50,[56],> 89.7 µM (inactive)
same,GI50,[57],> 100 µM (inactive)
O=C(c1ccccc1O)c1cc(-c2ncc3c(=O)c4ccccc4oc3n2)c(-c2ccccc2O)[nH]c1=O,GI50,[1],23.8 µM (inactive)
same,GI50,[2],1.47 µM (inactive)
same,GI50,[3],26 µM (inactive)
same,GI50,[5],23.4 µM (inactive)
same,GI50,[7],19.7 µM (inactive)
same,GI50,[8],24.4 µM (inactive)
same,GI50,[10],18.1 µM (inactive)
same,GI50,[11],20.7 µM (inactive)
same,GI50,[58],34.2 µM (inactive)
same,GI50,[12],23.4 µM (inactive)
same,GI50,[13],25.5 µM (inactive)
same,GI50,[15],22.5 µM (inactive)
same,GI50,[16],30.7 µM (inactive)
same,GI50,[17],31.9 µM (inactive)
same,GI50,[18],19.2 µM (inactive)
same,GI50,[20],21.3 µM (inactive)
same,GI50,[21],17 µM (inactive)
same,GI50,[22],24.9 µM
same,GI50,[23],8.73 µM (inactive)
same,GI50,[24],18.5 µM (inactive)
same,GI50,[25],12 µM (inactive)
same,GI50,[26],19.2 µM (inactive)
same,GI50,[27],11.4 µM (inactive)
same,GI50,[28],24 µM (inactive)
same,GI50,[29],28.8 µM (inactive)
same,GI50,[30],33.3 µM (inactive)
same,GI50,[59],31.7 µM (inactive)
same,GI50,[31],23.3 µM (inactive)
same,GI50,[32],26.9 µM (inactive)
same,GI50,[33],14.9 µM (inactive)
same,GI50,[34],23.6 µM (inactive)
same,GI50,[35],18.9 µM (inactive)
same,GI50,[36],20.1 µM (inactive)
same,GI50,[37],25.2 µM (inactive)
same,GI50,[38],24.9 µM (inactive)
same,GI50,[40],18.6 µM (inactive)
same,GI50,[41],24 µM (inactive)
same,GI50,[42],26.8 µM (inactive)
same,GI50,[44],29.9 µM (inactive)
same,GI50,[45],22.9 µM (inactive)
same,GI50,[46],30 µM (inactive)
same,GI50,[47],25.9 µM (inactive)
same,GI50,[48],36.5 µM (inactive)
same,GI50,[49],30 µM (inactive)
same,GI50,[50],28.2 µM (inactive)
same,GI50,[51],19.7 µM (inactive)
same,GI50,[60],14.3 µM (inactive)
same,GI50,[52],22.1 µM (inactive)
same,GI50,[54],25.5 µM (inactive)
same,GI50,[55],22.5 µM (inactive)
same,GI50,[56],15 µM (inactive)
same,GI50,[57],8.02 µM (inactive)
CC1=C2C(=O)O[C@@H](c3ccoc3)[C@]2(C)CCC1 [FRAXINELLONE],GI50,[2],> 100 µM (inactive)
same,GI50,[3],> 100 µM (inactive)
same,GI50,[4],> 100 µM (inactive)
same,GI50,[6],> 100 µM (inactive)
same,GI50,[7],> 100 µM (inactive)
same,GI50,[8],> 100 µM (inactive)
same,GI50,[9],> 100 µM (inactive)
same,GI50,[10],> 100 µM (inactive)
same,GI50,[11],> 100 µM (inactive)
same,GI50,[58],> 100 µM (inactive)
same,GI50,[12],23.1 µM (inactive)
same,GI50,[13],> 100 µM (inactive)
same,GI50,[14],> 100 µM (inactive)
same,GI50,[15],> 100 µM (inactive)
same,GI50,[16],> 100 µM (inactive)
same,GI50,[17],> 100 µM (inactive)
same,GI50,[18],> 100 µM (inactive)
same,GI50,[19],> 100 µM (inactive)
same,GI50,[21],> 100 µM (inactive)
same,GI50,[22],> 100 µM
same,GI50,[23],> 100 µM (inactive)
same,GI50,[24],> 100 µM (inactive)
same,GI50,[25],> 100 µM (inactive)
same,GI50,[26],77.1 µM (inactive)
same,GI50,[27],> 100 µM (inactive)
same,GI50,[28],> 100 µM (inactive)
same,GI50,[29],> 100 µM (inactive)
same,GI50,[30],> 100 µM (inactive)
same,GI50,[31],> 100 µM (inactive)
same,GI50,[32],> 100 µM (inactive)
same,GI50,[33],> 100 µM (inactive)
same,GI50,[34],> 100 µM (inactive)
same,GI50,[35],> 100 µM (inactive)
same,GI50,[36],> 100 µM (inactive)
same,GI50,[37],> 100 µM (inactive)
same,GI50,[38],> 100 µM (inactive)
same,GI50,[39],> 100 µM (inactive)
same,GI50,[40],> 100 µM (inactive)
same,GI50,[41],> 100 µM (inactive)
same,GI50,[43],> 100 µM (inactive)
same,GI50,[44],> 100 µM (inactive)
same,GI50,[45],> 100 µM (inactive)
same,GI50,[46],> 100 µM (inactive)
same,GI50,[47],> 100 µM (inactive)
same,GI50,[48],> 100 µM (inactive)
same,GI50,[49],> 100 µM (inactive)
same,GI50,[50],> 100 µM (inactive)
same,GI50,[51],> 100 µM (inactive)
same,GI50,[52],> 100 µM (inactive)
same,GI50,[53],> 100 µM (inactive)
same,GI50,[54],> 100 µM (inactive)
same,GI50,[55],> 100 µM (inactive)
same,GI50,[56],> 100 µM (inactive)
same,GI50,[57],> 100 µM (inactive)
